The values below come from patent publication US20240317735A1, “HYDROISOQUINOLINE OR HYDRONAPHTHYRIDINE COMPOUNDS FOR THE TREATMENT OF AUTOIMMUNE DISEASE” (Hoffmann-La Roche Inc., priority 2020, published 2024).

This experiment has as its target T1, TLR9 (Homo sapiens, UniProt Q9NR96).
T1 sequence (Q9NR96 26-1032): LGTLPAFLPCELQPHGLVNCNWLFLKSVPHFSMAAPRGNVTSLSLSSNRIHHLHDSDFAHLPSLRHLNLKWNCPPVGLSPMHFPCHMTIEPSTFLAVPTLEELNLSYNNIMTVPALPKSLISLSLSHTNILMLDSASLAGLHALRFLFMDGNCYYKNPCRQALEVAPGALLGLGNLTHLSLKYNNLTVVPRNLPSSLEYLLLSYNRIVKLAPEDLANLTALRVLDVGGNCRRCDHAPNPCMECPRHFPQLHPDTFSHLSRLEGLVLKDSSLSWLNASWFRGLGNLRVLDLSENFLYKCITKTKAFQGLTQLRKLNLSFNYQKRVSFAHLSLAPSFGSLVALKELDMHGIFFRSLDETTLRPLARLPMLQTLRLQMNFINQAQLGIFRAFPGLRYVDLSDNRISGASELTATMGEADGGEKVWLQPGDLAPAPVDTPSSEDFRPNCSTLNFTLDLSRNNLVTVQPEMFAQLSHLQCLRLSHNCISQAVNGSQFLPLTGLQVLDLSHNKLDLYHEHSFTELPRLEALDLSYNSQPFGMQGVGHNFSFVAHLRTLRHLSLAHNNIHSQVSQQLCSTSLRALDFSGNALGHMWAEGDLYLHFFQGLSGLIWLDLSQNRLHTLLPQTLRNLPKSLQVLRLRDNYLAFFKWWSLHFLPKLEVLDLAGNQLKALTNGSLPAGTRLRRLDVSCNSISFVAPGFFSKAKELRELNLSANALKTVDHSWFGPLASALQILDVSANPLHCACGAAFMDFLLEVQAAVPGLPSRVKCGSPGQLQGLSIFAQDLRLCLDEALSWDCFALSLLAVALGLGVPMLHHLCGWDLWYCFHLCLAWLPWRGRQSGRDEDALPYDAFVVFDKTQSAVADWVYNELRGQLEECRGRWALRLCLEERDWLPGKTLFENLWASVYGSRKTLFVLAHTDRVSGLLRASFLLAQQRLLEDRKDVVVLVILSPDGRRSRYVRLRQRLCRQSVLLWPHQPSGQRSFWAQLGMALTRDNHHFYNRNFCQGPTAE
Put plainly: HEK293-Blue-hTLR-9 cells assay (SEAP reporter, ODN2006 stimulation). The following applies: HEK293-Blue-hTLR9 cells, ODN2006, 20 hrs; read-out: HEK/hTLR9 IC50. The arrangement: host or cells: HEK293 (HEK-Blue hTLR9). It is filed as cell-based. The method, then:
The following tests were carried out in order to determine the activity of the compounds of formula (I) and (Ia) in HEK293-Blue-hTLR-7/8/9 cells assay.
A stable HEK293-Blue-hTLR-9 cell line was purchased from InvivoGen (Cat. #: hkb-htlr9, San Diego, California, USA). These cells were originally designed for studying the stimulation of human TLR9 by monitoring the activation of NF-κB. A SEAP (secreted embryonic alkaline phosphatase) reporter gene was placed under the control of the IFN-β minimal promoter fused to five NF-κB and AP-1-binding sites. The SEAP was induced by activating NF-κB and AP-1 via stimulating HEK-Blue hTLR9 cells with TLR9 ligands. Therefore the reporter expression was declined by TLR9 antagonist under the stimulation of a ligand, such as ODN2006 (Cat. #: tlrl-2006-1, Invivogen, San Diego, California, USA), for incubation of 20 hrs. The cell culture supernatant SEAP reporter activity was determined using QUANTI-Blue™ kit (Cat. #: rep-qb1, Invivogen, San Diego, California, USA) at a wavelength of 640 nm, a detection medium that turns purple or blue in the presence of alkaline phosphatase.
HEK293-Blue-hTLR9 cells were incubated at a density of 250,000-450,000 cells/mL in a volume of 170 μL in a 96-well plate in Dulbecco's Modified Eagle's medium (DMEM) containing 4.5 g/L glucose, 50 U/mL penicillin, […], […], 2 mM L-glutamine, 10% (v/v) heat-inactivated fetal bovine serum with addition of 20 μL test compound in a serial dilution in the presence of final DMSO at 1% and 10 μL of 20 uM ODN2006 in above DMEM, perform incubation under 37° C. in a CO2 incubator for 20 hrs. Then 20 μL of the supernatant from each well was incubated with 180 μL Quanti-blue substrate solution at 37° C. for 2 h and the absorbance was read at 620˜655 nm using a spectrophotometer.
The signaling pathway that TLR9 activation leads to downstream NF-κB activation has been widely accepted, and therefore similar reporter assay was modified for evaluating TLR9 antagonist.
In the case of `Cc1cc(N2Cc3ccc(N4C[C@@H](F)[C@@H](N)C4)nc3[C@@H](C)C2)c2cnn(C)c2n1` [Example 69, (3S,4R)-4-fluoro-1-[(8S)-6-(1,6-dimethylpyrazolo[3,4-b]pyridin-4-yl)-8-methyl-7,8-dihydro-5H-1,6-naphthyridin-2-yl]pyrrolidin-3-amine], the IC50 was 488 nM. Regarding `C[C@H]1CN(c2ccnc3c2cnn3C)Cc2ccc(N3CCC(N4CCNCC4)CC3)cc21` [Example 10, (4R)-4-methyl-2-(1-methylpyrazolo[3,4-b]pyridin-4-yl)-6-(4-piperazin-1-yl-1-piperidyl)-3,4-dihydro-1H-isoquinoline], the IC50 stood at 58 nM. The result for `C[C@H]1CN(c2ccnc3c2cnn3C)Cc2ccc(N3CCNC(CO)C3)cc21` (stereo partly drawn) [Example 49, [4-[(4R)-4-methyl-2-(1-methylpyrazolo[3,4-b]pyridin-4-yl)-3,4-dihydro-1H-isoquinolin-6-yl]piperazin-2-yl]methanol] reads 199 nM.

For `C[C@H]1CN(c2ccnc3c2cnn3C)Cc2ccc(N3CCC(N4CC[C@@H](N)[C@H](O)C4)CC3)cc21` [Example 29, trans-4-amino-1-[1-[(4R)-4-methyl-2-(1-methylpyrazolo[3,4-b]pyridin-4-yl)-3,4-dihydro-1H-isoquinolin-6-yl]-4-piperidyl]piperidin-3-ol], the IC50 is 106 nM. Take `C[C@H]1CN(c2ccnc3c2cnn3C)Cc2ccc(N3CCN[C@H](CO)C3)cc21` [Example 51, [(2S)-4-[(4R)-4-methyl-2-(1-methylpyrazolo[3,4-b]pyridin-4-yl)-3,4-dihydro-1H-isoquinolin-6-yl]piperazin-2-yl]methanol]: the IC50 amounted to 365 nM. With `CCn1ncc2c(N3Cc4ccc(N5CCNCC5)cc4[C@@H](C)C3)ccnc21` [Example 22, (4R)-2-(1-ethylpyrazolo[3,4-b]pyridin-4-yl)-4-methyl-6-piperazin-1-yl-3,4-dihydro-1H-isoquinoline] the figure was 412 nM. As for `C[C@H]1CN(c2ccnc3c2cnn3C)Cc2ccc(N3CCN[C@@H](CO)C3)cc21` [Example 50, [(2R)-4-[(4R)-4-methyl-2-(1-methylpyrazolo[3,4-b]pyridin-4-yl)-3,4-dihydro-1H-isoquinolin-6-yl]piperazin-2-yl]methanol], the IC50 amounted to 376 nM. `C[C@H]1CN(c2ccnc3c2cnn3C)Cc2ccc(N3CC4(CCNC4)OC3=O)cc21` (stereo partly drawn) [Example 35, 3-[(4R)-4-methyl-2-(1-methylpyrazolo[3,4-b]pyridin-4-yl)-3,4-dihydro-1H-isoquinolin-6-yl]-1-oxa-3,7-diazaspiro[4.4]nonan-2-one]: the IC50 was 182 nM. The result for `Cc1cc(N2Cc3ccc(N4CCC(C)(N)CC4)nc3[C@@H](C)C2)c2cnn(C)c2n1` [Example 59, 4-methyl-1-[(8S)-6-(1,6-dimethylpyrazolo[3,4-b]pyridin-4-yl)-8-methyl-7,8-dihydro-5H-1,6-naphthyridin-2-yl]piperidin-4-amine] reads 121 nM; that for `Cc1cc(N2Cc3ccc(N4CCN(C)CC4)nc3[C@@H](C)C2)c2cnn(C)c2n1` [Example 67, (8S)-6-(1,6-dimethylpyrazolo[3,4-b]pyridin-4-yl)-8-methyl-2-(4-methylpiperazin-1-yl)-7,8-dihydro-5H-1,6-naphthyridine], 282 nM. As to `Cc1cc(N2Cc3ccc(N4CC5(CNCCO5)C4)nc3[C@@H](C)C2)c2cnn(C)c2n1` [Example 68, 2-[(8S)-6-(1,6-dimethylpyrazolo[3,4-b]pyridin-4-yl)-8-methyl-7,8-dihydro-5H-1,6-naphthyridin-2-yl]-5-oxa-2,8-diazaspiro[3.5]nonane], the IC50 was found to be 332 nM. For the compound `CO[C@@H]1CN(c2ccc3c(c2)[C@@H](C)CN(c2cc(C)nc4c2cnn4C)C3)C[C@H]1N` [Example 23, (3R,4R)-4-methoxy-1-[(4R)-2-(1,6-dimethylpyrazolo[3,4-b]pyridin-4-yl)-4-methyl-3,4-dihydro-1H-isoquinolin-6-yl]pyrrolidin-3-amine], the IC50 amounted to 115 nM. On to `Cc1cc(N2Cc3ccc(N4CC5(CNCCO5)C4)cc3[C@@H](C)C2)c2cnn(C)c2n1` [Example 48, 2-[(4R)-2-(1,6-dimethylpyrazolo[3,4-b]pyridin-4-yl)-4-methyl-3,4-dihydro-1H-isoquinolin-6-yl]-5-oxa-2,8-diazaspiro[3.5]nonane], for which the IC50 was found to be 229 nM. The result for `Cc1cc(N2Cc3ccc(N4CCC(N)CC4)nc3[C@@H](C)C2)c2cnn(C)c2n1` [Example 58, 1-[(8S)-6-(1,6-dimethylpyrazolo[3,4-b]pyridin-4-yl)-8-methyl-7,8-dihydro-5H-1,6-naphthyridin-2-yl]piperidin-4-amine] reads 199 nM; that for `CC1CN(c2ccnc3c2cnn3C)Cc2ccc(N3CCC4(CCNCC4)CC3)cc21` (stereo not shown) [Example 4, 3-[4-methyl-2-(1-methylpyrazolo[3,4-b]pyridin-4-yl)-3,4-dihydro-1H-isoquinolin-6-yl]-3,9-diazaspiro[5.5]undecane], 275 nM; that for `C[C@H]1CN(c2ccnc3c2cnn3C)Cc2ccc(OC[C@@H]3CNCCN3C=O)cc21` [Example 45, (2S)-2-[[(4R)-4-methyl-2-(1-methylpyrazolo[3,4-b]pyridin-4-yl)-3,4-dihydro-1H-isoquinolin-6-yl]oxymethyl]piperazine-1-carbaldehyde], 350 nM.

Turning to `Cc1cc(N2Cc3ccc(OC4CCNCC4)nc3[C@@H](C)C2)c2cnn(C)c2n1` [Example 64, (8S)-6-(1,6-dimethylpyrazolo[3,4-b]pyridin-4-yl)-8-methyl-2-(4-piperidyloxy)-7,8-dihydro-5H-1,6-naphthyridine], the IC50 turned out to be 249 nM. With `Cc1cc(N2Cc3cnc(N4CC5(CNCCO5)C4)cc3[C@@H](C)C2)c2cnn(C)c2n1` [Example 79, 2-[(5R)-7-(1,6-dimethylpyrazolo[3,4-b]pyridin-4-yl)-5-methyl-6,8-dihydro-5H-2,7-naphthyridin-3-yl]-5-oxa-2,8-diazaspiro[3.5]nonane] the figure was 131 nM; with `C[C@H]1CN(c2ccnc3c2cnn3C)Cc2ccc(N3CCNCC3)nc21` [Example 62, (8S)-8-methyl-6-(1-methylpyrazolo[3,4-b]pyridin-4-yl)-2-piperazin-1-yl-7,8-dihydro-5H-1,6-naphthyridine], 264 nM; with `C[C@H]1CN(c2ccnc3c2cnn3C)Cc2ccc(N3CCN(S(=O)(=O)C4CCNC4)CC3)cc21` (stereo partly drawn) [Example 33, (4R)-4-methyl-2-(1-methylpyrazolo[3,4-b]pyridin-4-yl)-6-(4-pyrrolidin-3-ylsulfonylpiperazin-1-yl)-3,4-dihydro-1H-isoquinoline], 326 nM. Take `C[C@H]1CN(c2ccnc3c2cnn3C)Cc2ccc(N3CC4(CCNC4)CC3=O)cc21` (stereo partly drawn) [Example 52, 2-[(4R)-4-methyl-2-(1-methylpyrazolo[3,4-b]pyridin-4-yl)-3,4-dihydro-1H-isoquinolin-6-yl]-2,7-diazaspiro[4.4]nonan-3-one]: the IC50 is 117 nM.

With `Cc1cc(N2Cc3ccc(N4CCNCC4)nc3[C@@H](C)C2)c2cnn(C)c2n1` [Example 66, (8S)-6-(1,6-dimethylpyrazolo[3,4-b]pyridin-4-yl)-8-methyl-2-piperazin-1-yl-7,8-dihydro-5H-1,6-naphthyridine], the IC50 is 132 nM.
